In series [1] the test system is Huntingtin (HTT) transcripts. The experiment in a line: Quantitative splicing assay (HTT), qPCR. In kind it is cell-based. To be noted: Homo sapiens, GM04724 (CAG 70/20) Huntington's disease patient lymphoblasts, 24 h. Put shortly: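 Read-out is TaqMan qPCR on cDNA, quantifying inclusion of a cryptic exon within HTT intron 49. Cells were Huntington's patient lymphoblasts GM04724 (CAG 70/20), treated for 24 h at 0.15 nM–2.5 uM compound in 0.1% DMSO.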

The test system of the next series is mHTT protein. The experiment in a line: mHTT protein assay (2B7-MW1, Mesoscale Discovery). In kind it is cell-based, human. To be noted: GM04724 (CAG 70/20) Huntington's disease patient lymphoblast cells, 48 hours, 2B7-MW1 MSD; read-out: HTT Potency - Protein EC50 mHTT (average). The method, boiled down:
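mHTT levels were read with the 2B7-MW1 antibody pair (N17 and polyQ epitopes) on MSD after 48 h dosing, 10 μM–0.6 nM. Cells were GM04724 HD lymphoblasts (CAG 70/20). A replica plate was read by CTG for cell viability.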

Series [2] concerns MDR1-MDCK cell monolayers. The series is described as follows: MDCK-MDR1 permeability assay (BBB penetration potential). The format is in vitro ADME. To be noted: dog, MDCK-MDR1, 120 min, 5 μM, pH 7.4. Here is the method: (§1) Each determination is performed in duplicate. […] Analytical conditions are outlined below.
A further series relates to MDR1. The series is described as above. The format is in vitro ADME. To be noted: dog; for efflux ratio at 120 min, 5 μM: MDCK-MDR1, pH 7.4, MDCK-MDR1: Efflux; for Papp A→B at 120 min, 5 μM: MDCK-MDR1, pH 7.4, MDCK-MDR1: Papp A-B; for Papp B→A at 120 min, 5 μM: MDCK-MDR1, pH 7.4, MDCK-MDR1: Papp B-A. Here is the method:
as §1

Setting [3] is: qPCR HTTex49_50, read-out: HTT Potency - Splicing: E49-50 EC50 (average).
Setting [4] is: qPCR cryptic exon 49b inclusion, read-out: HTT Potency - Splicing: E49b EC50 (average).

pEC50: −log10 of the molar value. Like-named read-outs stand apart in the source and are kept apart here.

In general, pEC50 refers to the negative decadic logarithm of the EC50, by convention in mol/L. One may read the efflux ratio as the permeability from basolateral to apical divided by that in the opposite direction, in the common usage. By Papp A→B is commonly meant the apparent permeability from the apical to the basolateral side of a cell layer. For orientation: Papp B→A means the apparent permeability from the basolateral to the apical side of a cell layer.

Regarding `Cn1ccc2cc(-c3ccc(O[C@H]4C[C@]5(C)CC[C@@](C)(N5)[C@H]4F)nn3)c(O)cc2c1=O` (single isomer, unassigned) [127-ENT1], the pEC50 in series [1] (setting [3]) is 6.30 to 7.00. Also, in series [1] (setting [4]), the negative logarithm of the EC50 (pEC50) is 6.30 to 7.00. Besides, the negative logarithm of the EC50 (pEC50) with mHTT protein is 7.00 to 7.29. Also, in series [2], the “MDCK-MDR1: % Recov A-B” value was determined as 78% and the “MDCK-MDR1: % Recov B-A” value amounted to 70%. Also, in the series with MDR1, the efflux ratio at 120 min, 5 μM is 7; the Papp A→B at 120 min, 5 μM is 6.39 ×10⁻⁶ cm/s; the Papp B→A at 120 min, 5 μM is 46.5 ×10⁻⁶ cm/s.
For `Oc1cc(-c2cn[nH]c2)ccc1-c1ccc(O[C@H]2C[C@@H]3CC[C@@H](N3)[C@H]2F)nn1` (single isomer, unassigned) [42-ENT1], the pEC50 in series [1] (setting [3]) was 7.82 to 11.00. For the same molecule, in series [1] (setting [4]), the pEC50 was 7.82 to 11.00. The negative logarithm of the EC50 (pEC50) in the series with mHTT protein was 7.82 to 11.00. For the same molecule, in series [2], the “MDCK-MDR1: % Recov A-B” value was 75% and the “MDCK-MDR1: % Recov B-A” value stood at 84%. In the series on MDR1, the efflux ratio at 120 min, 5 μM was determined as 12; the apparent permeability from apical to basolateral (Papp A→B) at 120 min, 5 μM was determined as 3.39 ×10⁻⁶ cm/s; the Papp B→A at 120 min, 5 μM was 42.4 ×10⁻⁶ cm/s.

Values taken from US12522597B2, “Methods and compositions for modulating splicing” (Skyhawk Therapeutics, Inc., priority 2019, dated 2026).
